Reference: US11440970B2, “Nicotine-binding antibodies” (priority 2017, dated 2022)
Read-outs that look alike come from different tables or passages of the source.

Key:
[1] = Non-GLP 4-week repeated high-dose toxicology study; format: in vivo; conditions: nicotine 1 mg/kg/day s.c. infusion for 28d; rats
Protocol: 8D1-IgG4 was dosed i.v. once weekly at 200 mg/kg.
Assessment of toxicity was based on mortality, clinical observations, and body weight during the course of the 28-day study, and at the end of study organ weights, gross anatomic pathology, hematology, serum clinical chemistry, and coagulation was performed. Histopathology of selected tissues (heart, liver, lung, kidney, spleen, skeletal muscle, brain, colon, stomach, ovary, and testis) is pending. Tissues were fixed immediately in formalin, and processed for embedding in paraffin, staining with H&E, and review by a veterinary pathologist.

[2] = cited from earlier work
[3] = mice; cited from earlier work
[4] = rats; cited from earlier work

## CN1CCC[C@H]1c1cccnc1 [nicotine]
[1]
  hematology finding in animals that received nicotine: slight polychromasia
[2]; human adult
  lethal dose (may be as high as): 1.0 to 7.1 mg/kg
[2]; in vivo
  lethal dose (may be as high as): ≥ 500 mg
[3]
  LD50: 3 mg/kg
[4]
  LD50: 50 mg/kg
